# Data as given in US9029384B2, “Phosphatidylinositol 3-kinase inhibitors” (Gilead Calistoga LLC, priority 2012, dated 2015).
# pEC50, pIC50: −log10 of the molar value. Read-outs that look alike come from different tables or passages of the source.
# How the values were obtained:
# [1] = test system: basophils; assay: Basophil activation in human whole blood (Flow2 CAST kit, CD63 positive cells); format: cell-based
# How it was run: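 Human whole blood (K2-EDTA) preincubated 60 minutes at 37° C with compound serial dilutions or DMSO (0.3% final), then stimulated with anti-FcεRI mAb or fMLP and stained for CD63/CCR3. Percent CD63+ among ≥200 CCR3-high basophils by flow cytometry, normalized to stimulated vehicle as 100%. EC50 from four-parameter fits, geometric means in nM, concentrations corrected for reagent dilution.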
# [2] = target: T1, PI3Kδ (Homo sapiens, UniProt O00329); assay: Enzymatic activity of PI3K isoforms, TR-FRET assay (PIP3 formation); format: biochemical
# T1 construct: made in house
# T1 sequence (O00329 whole entry, canonical isoform): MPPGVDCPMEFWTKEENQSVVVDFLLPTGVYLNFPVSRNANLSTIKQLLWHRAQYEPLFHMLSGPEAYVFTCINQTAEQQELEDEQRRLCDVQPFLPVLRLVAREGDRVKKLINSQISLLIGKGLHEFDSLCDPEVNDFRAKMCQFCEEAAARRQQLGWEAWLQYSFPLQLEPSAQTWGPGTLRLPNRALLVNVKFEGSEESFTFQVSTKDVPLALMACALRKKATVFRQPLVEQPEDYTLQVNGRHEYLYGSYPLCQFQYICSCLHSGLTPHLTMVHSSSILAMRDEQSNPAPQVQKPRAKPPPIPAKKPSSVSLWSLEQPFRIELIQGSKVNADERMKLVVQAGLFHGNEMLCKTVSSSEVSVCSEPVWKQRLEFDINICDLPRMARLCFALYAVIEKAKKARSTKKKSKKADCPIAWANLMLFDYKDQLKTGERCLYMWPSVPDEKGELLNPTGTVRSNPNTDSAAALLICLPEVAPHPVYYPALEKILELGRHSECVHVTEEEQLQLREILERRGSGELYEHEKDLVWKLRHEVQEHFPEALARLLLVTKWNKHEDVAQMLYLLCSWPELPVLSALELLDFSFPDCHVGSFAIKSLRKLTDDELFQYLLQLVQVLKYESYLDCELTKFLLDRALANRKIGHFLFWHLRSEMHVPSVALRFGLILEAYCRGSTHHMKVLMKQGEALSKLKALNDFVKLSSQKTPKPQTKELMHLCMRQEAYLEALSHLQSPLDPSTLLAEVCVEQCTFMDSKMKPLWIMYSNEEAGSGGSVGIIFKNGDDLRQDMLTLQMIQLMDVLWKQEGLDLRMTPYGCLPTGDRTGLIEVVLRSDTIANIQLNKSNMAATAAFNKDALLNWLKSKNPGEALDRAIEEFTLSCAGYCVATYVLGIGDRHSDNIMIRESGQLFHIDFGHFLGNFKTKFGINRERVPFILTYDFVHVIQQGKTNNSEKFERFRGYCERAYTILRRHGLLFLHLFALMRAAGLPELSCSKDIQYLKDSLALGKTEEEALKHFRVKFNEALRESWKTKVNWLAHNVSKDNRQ
# T1 sequence (P27986 whole entry partner, canonical isoform): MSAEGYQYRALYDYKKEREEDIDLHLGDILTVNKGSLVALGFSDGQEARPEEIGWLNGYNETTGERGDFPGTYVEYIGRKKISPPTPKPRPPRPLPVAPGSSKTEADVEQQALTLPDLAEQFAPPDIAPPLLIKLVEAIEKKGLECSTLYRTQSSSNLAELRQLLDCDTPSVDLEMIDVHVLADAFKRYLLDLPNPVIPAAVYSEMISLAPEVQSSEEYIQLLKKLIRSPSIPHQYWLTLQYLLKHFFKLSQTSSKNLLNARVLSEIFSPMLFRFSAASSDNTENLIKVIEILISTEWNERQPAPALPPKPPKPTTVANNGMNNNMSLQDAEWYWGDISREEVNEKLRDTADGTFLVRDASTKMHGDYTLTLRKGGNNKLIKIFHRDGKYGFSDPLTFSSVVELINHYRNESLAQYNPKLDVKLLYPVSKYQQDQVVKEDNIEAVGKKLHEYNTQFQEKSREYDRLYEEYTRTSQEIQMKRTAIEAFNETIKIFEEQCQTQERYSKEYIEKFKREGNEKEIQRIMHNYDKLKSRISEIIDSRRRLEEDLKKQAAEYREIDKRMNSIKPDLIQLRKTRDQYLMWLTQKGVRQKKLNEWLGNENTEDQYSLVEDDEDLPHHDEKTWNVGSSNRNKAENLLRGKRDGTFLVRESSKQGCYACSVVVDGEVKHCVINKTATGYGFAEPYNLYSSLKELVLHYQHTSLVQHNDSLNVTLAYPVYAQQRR
# How it was run: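 Recombinant heterodimeric class I PI3K; PIP3 product measured by TR-FRET competition with labelled PIP3 for Eu-GRP-1 PH domain. Reaction 30 min at 25 °C, stopped with 10 mM EDTA.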
# [3] = Hepatocyte stability, 1% final DMSO, 2 μM substrate (t1/2^a); format: in vitro ADME; settings: human, cryopreserved hepatocytes, TA with 1% final DMSO
# Experimental: This assay was used to evaluate the metabolic stability of test articles (TA) following incubation in cryopreserved hepatocytes by monitoring parent drug disappearance via […]. The TA with 1% final DMSO concentration was incubated with 1 million hepatocytes/ml at 2 μM substrate in duplicate. The incubation was carried out at 37° C. with 5% CO2 and saturating humidity.
# [4] = Hepatocyte stability, 0.01% final DMSO, 1 μM substrate (t1/2^b); format: in vitro ADME; settings: human, hepatocytes, TA with 0.01% final DMSO
# Experimental: Alternatively, assay reagents and/or conditions can be modified in determining the inhibitory activities to PI3K isomers. In additional studies, similar assay using TA and 0.01% final DMSO concentration were incubated with 1 million hepatocytes/mL at 1 μM substrate in duplicate. The incubation was carried out at 37° C. with 5% CO2 and saturating humidity.
# [5] = Homo sapiens, basophils activated with anti-FcεRI mAb or fMLP, geometric mean
# [6] = PI3Kδ, TR-FRET, 2×Km ATP, 10 μM PIP2, read-out: IC50
# [7] = 2 μM substrate, samples at 0, 1, 2, 4 hours, read-out: human hepatocyte t½^a
# [8] = 1 μM substrate, samples at 0, 1, 3, 6 hours, read-out: human hepatocyte t½^b
Structure (SMILES),"pEC50 [1, 5]","pIC50 [2, 6]","half-life at 2 μM [3, 7]","half-life at 1 μM [4, 8]",pIC50 [2],"pEC50 ([1]; basophils activated with anti-FcεRI mAb or fMLP, geometric mean)","pEC50 ([1]; Homo sapiens, basophil activation)","half-life at 2 μM ([3]; human hepatocytes, read-out: t1/2^a)","half-life at 1 μM ([4]; human hepatocytes, read-out: t1/2^b)"
"CC(Nc1nc(N)nc(N)c1C#N)c1nc2cccc(F)c2c(=O)n1-c1cc(F)cc(F)c1 (single isomer, unassigned) [Compound 10a]",8.00 to 9.00,8.00 to 9.00,> 10 h,3 to 6 h,–,–,–,–,–
"CC(Nc1nc(N)nc(N)c1C#N)c1nc2ccc(F)cc2c(=O)n1-c1cc(F)cc(F)c1 (single isomer, unassigned) [Compound 11a]",8.00 to 9.00,8.00 to 9.00,> 10 h,6 to 10 h,–,–,–,–,–
"CC(Nc1nc(N)nc(N)c1C#N)c1nc2c(F)cccc2c(=O)n1-c1cc(F)cc(F)c1 (single isomer, unassigned) [Compound 16a]",8.00 to 9.00,8.00 to 9.00,> 10 h,3 to 6 h,–,–,–,–,–
"Cc1ccc(F)c2nc(C(C)Nc3nc(N)nc(N)c3C#N)n(-c3cc(F)cc(C#N)c3)c(=O)c12 (single isomer, unassigned) [Compound 31a]",8.00 to 9.00,8.00 to 9.00,6 to 10 h,–,–,–,–,–,–
"Cc1ccc(F)c2c(=O)n(-c3cc(F)cc(F)c3)c(C(C)Nc3nc(N)nc(N)c3C#N)nc12 (single isomer, unassigned) [Compound 35a]",8.00 to 9.00,8.00 to 9.00,6 to 10 h,–,–,–,–,–,–
"CC(Nc1nc(N)nc(N)c1C#N)c1nc2cccc(F)c2c(=O)n1-c1cccc(C(F)(F)F)c1 (single isomer, unassigned) [Compound 40a]",8.00 to 9.00,8.00 to 9.00,6 to 10 h,–,–,–,–,–,–
"CC(Nc1nc(N)nc(N)c1C#N)c1nc2cccc(Cl)c2c(=O)n1-c1cc(Cl)cc(Cl)c1 (single isomer, unassigned) [Compound 41a]",7.30 to 8.00,8.00 to 9.00,3 to 6 h,–,–,–,–,–,–
"CC(Nc1nc(N)nc(N)c1C#N)c1nc2cccc(Cl)c2c(=O)n1-c1cc(F)cc(Cl)c1 (single isomer, unassigned) [Compound 43a]",8.00 to 9.00,8.00 to 9.00,3 to 6 h,–,–,–,–,–,–
"CC(Nc1nc(N)nc(N)c1C#N)c1nc2c(F)ccc(Cl)c2c(=O)n1-c1cc(F)cc(C#N)c1 (single isomer, unassigned) [Compound 48a]",< 7.30,7.30 to 8.00,> 10 h,–,–,–,–,–,–
"CC(Nc1nc(N)nc(N)c1C#N)c1nc2c(Cl)ccc(Cl)c2c(=O)n1-c1ccccc1 (single isomer, unassigned) [Compound 50a]",> 9.00,> 9.00,6 to 10 h,–,–,–,–,–,–
"COc1cc(OC)cc(-n2c(C(C)Nc3nc(N)nc(N)c3C#N)nc3cccc(Cl)c3c2=O)c1 (single isomer, unassigned) [Compound 51a]",8.00 to 9.00,8.00 to 9.00,3 to 6 h,–,–,–,–,–,–
"CCC(Nc1nc(N)nc(N)c1C#N)c1nc2cccc(C(F)F)c2c(=O)n1-c1cc(F)cc(F)c1 (single isomer, unassigned) [Compound 53a]",7.30 to 8.00,8.00 to 9.00,> 10 h,–,–,–,–,–,–
"CC(Nc1nc(N)nc(N)c1C#N)c1nc2cccc(Cl)c2c(=O)n1-c1cc(F)cc(C(F)F)c1 (single isomer, unassigned) [Compound 55a]",8.00 to 9.00,> 9.00,6 to 10 h,–,–,–,–,–,–
"CCC(Nc1nc(N)nc(N)c1C#N)c1nc2cccc(Cl)c2c(=O)n1-c1cc(F)cc(C(F)F)c1 (single isomer, unassigned) [Compound 66a]",8.00 to 9.00,8.00 to 9.00,3 to 6 h,–,–,–,–,–,–
"CCC(Nc1nc(N)nc(N)c1C#N)c1nc2c(Cl)cccc2c(=O)n1-c1cc(F)cc(F)c1 (single isomer, unassigned) [Compound 72a]",< 7.30,7.30 to 8.00,6 to 10 h,–,–,–,–,–,–
"Cc1ccc(Cl)c2c(=O)n(-c3cc(F)cc(F)c3)c(C(C)Nc3nc(N)nc(N)c3C#N)nc12 (single isomer, unassigned) [Compound 73a]",> 9.00,8.00 to 9.00,3 to 6 h,–,–,–,–,–,–
"CC(Nc1nc(N)nc(N)c1C#N)c1nc2c(Cl)ccc(Cl)c2c(=O)n1-c1cc(F)cc(F)c1 (single isomer, unassigned) [Compound 74a]",> 9.00,8.00 to 9.00,3 to 6 h,–,–,–,–,–,–
"Cc1cccc2c(=O)n(-c3cc(F)cc(F)c3)c(C(C)Nc3nc(N)nc(N)c3C#N)nc12 (single isomer, unassigned) [Compound 75a]",7.30 to 8.00,8.00 to 9.00,> 10 h,–,–,–,–,–,–
"CCC(Nc1nc(N)nc(N)c1C#N)c1nc2c(C)cccc2c(=O)n1-c1cc(F)cc(F)c1 (single isomer, unassigned) [Compound 76a]",< 7.30,7.30 to 8.00,> 10 h,–,–,–,–,–,–
"CCC(Nc1nc(N)nc(N)c1C#N)c1nc2cccc(Cl)c2c(=O)n1-c1cc(F)cc(F)c1 (single isomer, unassigned) [Compound 78a]",8.00 to 9.00,8.00 to 9.00,6 to 10 h,–,–,–,–,–,–
"Cc1ccc(F)c2c(=O)n(-c3cccc(C#N)c3)c(C(C)Nc3nc(N)nc(N)c3C#N)nc12 (single isomer, unassigned) [Compound 82a]",< 7.30,7.30 to 8.00,6 to 10 h,–,–,–,–,–,–
"CC(Nc1nc(N)nc(N)c1C#N)c1nc2cccc(C(F)F)c2c(=O)n1-c1cc(F)cc(C(F)F)c1 (single isomer, unassigned) [Compound 99a]",7.30 to 8.00,8.00 to 9.00,6 to 10 h,–,–,–,–,–,–
"CC(Nc1nc(N)nc(N)c1C(N)=O)c1nc2cccc(Cl)c2c(=O)n1-c1cccc(C(F)F)c1 (single isomer, unassigned) [Compound 100a]",8.00 to 9.00,8.00 to 9.00,1 to 3 h,–,–,–,–,–,–
"CCC(Nc1nc(N)nc(N)c1C#N)c1nc2c(Cl)ccc(F)c2c(=O)n1-c1cc(F)cc(F)c1 (single isomer, unassigned) [Compound 102a]",8.00 to 9.00,7.30 to 8.00,6 to 10 h,–,–,–,–,–,–
"CC(Nc1nc(N)nc(N)c1Cl)c1nc2cccc(Cl)c2c(=O)n1-c1ccccc1 (single isomer, unassigned) [Compound 104a]",8.00 to 9.00,–,3 to 6 h,–,> 9.00,–,–,–,–
"CC(C)c1cccc(-n2c(C(C)Nc3nc(N)nc(N)c3C#N)nc3cccc(Cl)c3c2=O)c1 (single isomer, unassigned) [Compound 107a]",8.00 to 9.00,8.00 to 9.00,< 1 h,–,–,–,–,–,–
"CC(C)CC(Nc1nc(N)nc(N)c1C#N)c1nc2cccc(Cl)c2c(=O)n1-c1cc(F)cc(F)c1 (single isomer, unassigned) [Compound 163a]",< 7.30,8.00 to 9.00,1 to 3 h,–,–,–,–,–,–
"COc1cc(F)cc(-n2c(C(C)Nc3nc(N)nc(N)c3C#N)nc3cccc(Cl)c3c2=O)c1 (single isomer, unassigned) [Compound 192a]",> 9.00,8.00 to 9.00,1 to 3 h,–,–,–,–,–,–
"Cc1ccc(F)cc1-n1c(C(C)Nc2nc(N)nc(N)c2C#N)nc2cccc(Cl)c2c1=O (single isomer, unassigned) [Compound 201a-2]",–,8.00 to 9.00,6 to 10 h,–,–,8.00 to 9.00,–,–,–
"C[C@H](Nc1ncnc2[nH]cnc12)c1nc2cccc(Cl)c2c(=O)n1-c1ccccc1 [X, reference compound]",8.00 to 9.00,–,1 to 3 h,–,–,–,< 8.30,< 1 h,< 2 h
